“And” between values parts separate entries of the source, which are not always exact repeats. Equal entries are not always repeated.
Experiments:
AMPK-γ3 CBS1-4 = molecular target: T1, AMPK-γ3 CBS1-4 (Homo sapiens, UniProt Q9UGI9); test: Filter binding assay, GST-CBS domain fusion; conditions: for Kd: two site Hill plot model, read-out: B0.5
T1 construct: Human γ3 (residues 197-479) was also used as a template for PCR; made in house; host or cells: E. coli BL21 (DE3)
T1 sequence (Q9UGI9 197-479): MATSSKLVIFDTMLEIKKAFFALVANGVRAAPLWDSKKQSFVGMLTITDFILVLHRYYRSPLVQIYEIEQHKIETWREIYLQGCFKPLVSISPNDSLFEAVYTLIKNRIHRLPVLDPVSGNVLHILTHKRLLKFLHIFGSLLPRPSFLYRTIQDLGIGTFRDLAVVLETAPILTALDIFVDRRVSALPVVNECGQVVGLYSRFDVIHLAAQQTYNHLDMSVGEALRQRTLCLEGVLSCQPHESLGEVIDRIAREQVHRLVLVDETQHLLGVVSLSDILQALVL
Source text: DNA fragments were produced encoding all four (CBS1-4), or the first two (CBS1-2), or the last two (CBS3-4) of the tandem CBS domains from the human AMPK γ2 subunit. DNAs were produced by the polymerase chain reaction (PCR) using the Stratagene Pfu Turbo PCR kit and a human γ2-encoding pcDNA3 plasmid as template. The following oligonucleotides were used as primers: (CBS1-4), 5′-CGCGGATCCGCGGTTCCAACCAGTTCAAAGCTTGTT-3′ (sense), 5′-CCGCTCGAGCGGCTCCGTTTCTGTCTCCTTTTGTTT-3′ (antisense); CBS1-2 (sense strand as CBS1-4), 5′-CCGCTCGAGCGGAAGCTGGAGGAACTTGAGGATTCT-3′ (antisense); CBS3-4: 5′-CGCGGATCCGCGATAGGAACGTACCACAACATTGCC-3′ (sense), 5′-CCGCTCGAGCGGGAGGATCAGGGCTTGCAGAATGTC-3′ (antisense). Human γ3 (residues 197-479) was also used as a template for PCR (14). The PCR products were subcloned into pGEX-KG as 5′-BamHI and 3′-XhoI restriction fragments for expression as glutathione-S-Transferase (GST) fusions in E. coli.
(§1) Various concentrations of [^14C]-AMP, [γ^32P] […] Reactions were stopped by spotting 10 ìl onto a Millipore MF Filter Membrane disc and rapidly washing under high vacuum with 1 ml of ice-cold TBS. Radioactivity was determined on the filters by scintillation counting. Non-specific binding (which was trivial) was determined by performing the assay with GST as a control, and was subtracted. […] Data were fitted to the binding models given in the text, using GraphPad Prism 3. Estimates of parameters resulting from fits are quoted in the text and Table 1±standard error, and the curves shown in figures are theoretical curves obtained using those estimates.

AMPK-γ2 CBS1-2 (T400N) = molecular target: T2, AMPK-γ2 CBS1-2 (T400N) (Homo sapiens, UniProt Q9UGJ0, T400N); test: Filter binding assay, GST-CBS domain fusion; conditions: for Kd: single-site model
T2 construct: the N-terminal pair (CBS1-2, residues 274-410); made in house; host or cells: E. coli BL21 (DE3)
Protocol: (§2) The present inventors also used site-directed mutagenesis to create four of the mutations in CBS1-2 that cause WPWS, i.e. R302Q, H383R and T400N, and Lins (which inserts a leucine residue in the linker between CBS1 and CBS2).
as §1

AMPK-γ2 CBS1-2 (Lins) = molecular target: T3, AMPK-γ2 CBS1-2 (Lins) (Homo sapiens, UniProt Q9UGJ0, INS350L); test: Filter binding assay, GST-CBS domain fusion; conditions: single-site model
T3 construct: fused on or other part: GST at the N-terminus followed by a hexaglycine spacer (pGEX-KG)
Protocol: as §2, §1

AMPK-γ2 CBS1-2 (H383R) = molecular target: T4, AMPK-γ2 CBS1-2 (H383R) (Homo sapiens, UniProt Q9UGJ0, H383R); test: Filter binding assay, GST-CBS domain fusion; conditions: for Kd: single-site model
T4 construct: the N-terminal pair (CBS1-2, residues 274-410); made in house; host or cells: E. coli BL21 (DE3)
Protocol: as §2, §1

AMPK-γ2 CBS1-4 (R531G) = molecular target: T5, AMPK-γ2 CBS1-4 (R531G) (Homo sapiens, UniProt Q9UGJ0, R531G); test: Filter binding assay, GST-CBS domain fusion; conditions: for Kd: two site Hill plot model, read-out: B0.5
T5 construct: all four CBS domains (CBS1-4, residues 274-569); made in house; host or cells: E. coli BL21 (DE3)
Protocol: (§3) With the H383R, T400N and R531G mutants there were large increases in B0.5 (6-, 8- and 10-fold) with no significant change in Hill coefficient.
as §1

[1] = molecular target: T6, recombinant á1â1γ1 heterotrimer (Rattus norvegicus, UniProt P80385); test: AMPK heterotrimer kinase assay, activation by AMP; format: biochemical
T6 construct: expressed in transfected cells; host or cells: CCL13 cells
Source text: (§4) Plasmids expressing myc-tagged á1, â1 and γ1, γ2 (with or without WPWS mutations) or γ3 were expressed in CCL13 cells and the recombinant complexes immunoprecipitated using anti-myc antibodies.
(§5) PCDNA plasmids (14,25,32) encoding á1, â1 and γ1, γ2 or γ3 were expressed in CCL13 cells (25), subject to “rapid lysis”, immunoprecipitated using anti-myc antibody, and assayed as described previously (33). “Slow lysis” of CCL13 cells was as described by Stein et al (34).

[2] = molecular target: T7, recombinant á1â1γ3 heterotrimer (Homo sapiens, UniProt Q9UGI9); test: AMPK heterotrimer kinase assay, activation by AMP; format: biochemical
T7 construct: expressed in transfected cells; host or cells: CCL13 cells
Source text: as §4, §5

AMPK = test: Activation of AMPK (data not shown); format: biochemical; conditions: read-out: concentration giving half-maximal activation
AMPK-γ2 CBS1-4 (WT) = molecular target: T8, AMPK-γ2 CBS1-4 (WT) (Homo sapiens, UniProt Q9UGJ0); test: Filter binding assay, GST-CBS domain fusion; conditions: for Kd: two site Hill plot model, read-out: B0.5 (concentration giving half-maximal binding)
T8 construct: all four CBS domains (CBS1-4, residues 274-569); made in house; host or cells: E. coli BL21 (DE3)
Source text: The boundaries of the CBS domains were taken from the alignments by Bateman. Using a plasmid encoding human γ2 as the template, PCR was used to produce DNAs encoding all four CBS domains (CBS1-4, residues 274-569), the N-terminal pair (CBS1-2, residues 274-410) or the C-terminal pair (CBS3-4, residues 430-556). The PCR primers had been designed to create BamHI and XhoI sites at the ends, and these were used to insert them into a vector that created a fusion protein with glutathione-S-transferase at the N-terminal end followed by a hexaglycine spacer, with the CBS domains at the C-terminus. All three constructs were expressed in E. coli and could be purified on glutathione-Sepharose as soluble proteins of the expected sizes in good yield (CBS1-4, 61 kDa, 5 mg/L of culture; CBS1-2, 43 kDa, 2 mg/L; CBS3-4, 43 kDa, 2 mg/L).
as §3, §1

AMPK-γ2 CBS1-2 construct = molecular target: T9, AMPK-γ2 CBS1-2 construct (Homo sapiens, UniProt Q9UGJ0); test: Displacement of [14C]AMP by unlabelled MgATP; format: binding; conditions: high concentrations of MgATP
T9 construct: the N-terminal pair (CBS1-2, residues 274-410); made in house; host or cells: E. coli BL21 (DE3)
Protocol: This yielded estimates for KdAMP and KdATP of 51 and 180 iM. These are very close to the estimates obtained by direct binding measurements (53 and 175 iÌ).
as §1

T8 sequence (Q9UGJ0 274-569): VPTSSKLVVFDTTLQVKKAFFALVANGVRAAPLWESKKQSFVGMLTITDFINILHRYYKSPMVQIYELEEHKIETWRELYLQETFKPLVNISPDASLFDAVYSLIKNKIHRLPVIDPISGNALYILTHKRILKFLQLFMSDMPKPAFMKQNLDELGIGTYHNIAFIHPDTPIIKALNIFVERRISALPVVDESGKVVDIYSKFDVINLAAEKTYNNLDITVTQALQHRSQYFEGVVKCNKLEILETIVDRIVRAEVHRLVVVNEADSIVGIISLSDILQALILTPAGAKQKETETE
T2 sequence (Q9UGJ0 274-410 T400N): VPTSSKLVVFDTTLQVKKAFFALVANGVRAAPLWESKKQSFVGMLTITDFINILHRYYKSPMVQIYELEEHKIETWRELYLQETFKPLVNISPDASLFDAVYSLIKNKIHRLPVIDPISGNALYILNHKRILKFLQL
T5 sequence (Q9UGJ0 274-569 R531G): as the sequence (Q9UGJ0 274-569) above, with R258G counted along it
T4 sequence (Q9UGJ0 274-410 H383R): as the sequence (Q9UGJ0 274-410 T400N) above, with H110R, N127T counted along it
T7 sequence (Q9UGI9 whole entry): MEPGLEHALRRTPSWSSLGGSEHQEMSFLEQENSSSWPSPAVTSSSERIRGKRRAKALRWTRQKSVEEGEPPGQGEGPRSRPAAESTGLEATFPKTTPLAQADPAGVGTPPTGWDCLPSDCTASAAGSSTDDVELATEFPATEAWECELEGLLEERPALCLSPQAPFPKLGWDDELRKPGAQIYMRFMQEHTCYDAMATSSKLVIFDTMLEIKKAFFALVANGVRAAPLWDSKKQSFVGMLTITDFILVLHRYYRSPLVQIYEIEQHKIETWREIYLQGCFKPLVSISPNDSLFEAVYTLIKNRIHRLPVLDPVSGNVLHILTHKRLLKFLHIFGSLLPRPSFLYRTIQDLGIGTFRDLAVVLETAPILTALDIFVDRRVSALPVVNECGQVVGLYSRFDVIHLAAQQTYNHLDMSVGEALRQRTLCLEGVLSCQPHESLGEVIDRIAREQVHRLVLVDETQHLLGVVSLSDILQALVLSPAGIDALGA
T7 sequence (P54645 whole entry partner): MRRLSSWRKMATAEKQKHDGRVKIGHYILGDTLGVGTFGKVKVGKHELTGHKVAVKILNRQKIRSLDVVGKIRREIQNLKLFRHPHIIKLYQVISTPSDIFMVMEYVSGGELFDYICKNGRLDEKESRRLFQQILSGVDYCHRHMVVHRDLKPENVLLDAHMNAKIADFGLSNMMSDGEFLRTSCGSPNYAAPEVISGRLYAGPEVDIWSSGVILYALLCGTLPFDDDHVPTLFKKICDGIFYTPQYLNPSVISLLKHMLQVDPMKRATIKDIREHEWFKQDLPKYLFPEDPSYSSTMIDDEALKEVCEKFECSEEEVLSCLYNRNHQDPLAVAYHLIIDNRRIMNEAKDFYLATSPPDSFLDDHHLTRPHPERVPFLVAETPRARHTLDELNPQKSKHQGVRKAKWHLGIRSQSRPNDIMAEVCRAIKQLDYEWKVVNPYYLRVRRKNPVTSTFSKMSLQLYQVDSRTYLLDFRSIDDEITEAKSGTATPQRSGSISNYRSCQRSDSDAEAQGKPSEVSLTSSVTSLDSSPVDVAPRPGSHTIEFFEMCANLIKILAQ
T7 sequence (P80386 2-270 partner limits assumed): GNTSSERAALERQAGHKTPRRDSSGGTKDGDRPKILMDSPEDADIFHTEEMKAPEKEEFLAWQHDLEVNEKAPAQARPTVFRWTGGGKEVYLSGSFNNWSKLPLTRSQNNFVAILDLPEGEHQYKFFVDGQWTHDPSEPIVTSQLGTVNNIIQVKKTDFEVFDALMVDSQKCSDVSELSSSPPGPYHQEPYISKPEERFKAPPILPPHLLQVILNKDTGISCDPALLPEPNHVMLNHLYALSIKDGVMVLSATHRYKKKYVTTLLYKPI
T3 sequence (Q9UGJ0 with tags, fused parts or gaps INS350L): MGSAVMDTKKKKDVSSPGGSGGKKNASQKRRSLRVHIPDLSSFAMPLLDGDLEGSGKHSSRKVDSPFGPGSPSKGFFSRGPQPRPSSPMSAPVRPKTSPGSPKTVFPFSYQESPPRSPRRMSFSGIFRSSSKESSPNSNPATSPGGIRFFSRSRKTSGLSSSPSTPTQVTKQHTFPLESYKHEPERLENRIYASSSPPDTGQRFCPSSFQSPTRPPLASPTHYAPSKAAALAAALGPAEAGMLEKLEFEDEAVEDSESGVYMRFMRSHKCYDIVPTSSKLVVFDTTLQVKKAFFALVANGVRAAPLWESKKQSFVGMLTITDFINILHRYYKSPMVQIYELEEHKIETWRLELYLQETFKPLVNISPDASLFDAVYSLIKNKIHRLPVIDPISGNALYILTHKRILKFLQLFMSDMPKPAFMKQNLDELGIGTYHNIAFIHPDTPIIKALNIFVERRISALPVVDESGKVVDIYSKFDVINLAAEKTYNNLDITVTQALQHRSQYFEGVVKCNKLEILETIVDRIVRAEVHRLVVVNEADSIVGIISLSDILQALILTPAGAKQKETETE
T6 sequence (P80385 whole entry): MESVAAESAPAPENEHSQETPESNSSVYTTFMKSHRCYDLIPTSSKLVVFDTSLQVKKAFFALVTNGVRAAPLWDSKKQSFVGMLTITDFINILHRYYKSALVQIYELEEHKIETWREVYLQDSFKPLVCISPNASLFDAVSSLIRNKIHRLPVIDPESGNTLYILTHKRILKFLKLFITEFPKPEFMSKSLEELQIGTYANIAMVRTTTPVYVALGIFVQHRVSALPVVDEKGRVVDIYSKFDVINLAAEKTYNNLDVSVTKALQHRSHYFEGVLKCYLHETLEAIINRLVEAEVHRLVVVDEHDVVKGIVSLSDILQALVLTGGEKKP
T6 sequence (P54645 whole entry partner): as the sequence (P54645 whole entry partner) above
T6 sequence (P80386 whole entry partner): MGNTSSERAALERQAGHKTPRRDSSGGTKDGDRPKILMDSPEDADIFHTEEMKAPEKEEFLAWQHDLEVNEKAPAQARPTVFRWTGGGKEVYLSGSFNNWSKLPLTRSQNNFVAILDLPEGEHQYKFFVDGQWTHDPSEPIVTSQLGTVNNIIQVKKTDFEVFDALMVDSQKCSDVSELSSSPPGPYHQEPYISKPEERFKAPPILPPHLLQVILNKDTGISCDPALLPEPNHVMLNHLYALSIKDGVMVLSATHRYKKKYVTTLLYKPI
T9 sequence (Q9UGJ0 274-410): as the sequence (Q9UGJ0 274-410 T400N) above, with N127T counted along it

Row | h (Hill coefficient) (AMPK-γ3 CBS1-4) | Kd (AMPK-γ3 CBS1-4) | increase in Kd relative to wild type (AMPK-γ2 CBS1-2 (T400N)) | Kd (AMPK-γ2 CBS1-2 (T400N)) | Kd (AMPK-γ2 CBS1-2 (Lins)) | increase in Kd relative to wild type (AMPK-γ2 CBS1-2 (H383R)) | Kd (AMPK-γ2 CBS1-2 (H383R)) | h (Hill coefficient) (AMPK-γ2 CBS1-4 (R531G)) | increase in B0.5 relative to wild type (AMPK-γ2 CBS1-4 (R531G)) | Kd (AMPK-γ2 CBS1-4 (R531G)) | stimulation by AMP [1] | EC50 ([1]; immunoprecipitated from CCL13 cells, slow lysis, read-out: A0.5) | stimulation by AMP [2] | EC50 ([2]; approximate only, read-out: A0.5) | EC50 (AMPK) | h (Hill coefficient) (AMPK-γ2 CBS1-4 (WT)) | Kd (AMPK-γ2 CBS1-4 (WT)) | displacement of [14C]AMP binding (AMPK-γ2 CBS1-2 construct) | Structure (SMILES)
1 | 2.2 ± 0.1 | 125 µM | 10 fold | 556 ± 56 µM | 63 ± 7 µM | 28 fold | 1500 ± 210 µM | 1.6 ± 0.2 | 46 fold | 2800 ± 220 µM | 3.3 fold | 13 ± 2 µM | 1.5 fold | 2 ± 2 µM | 4.7 µM | 2.2 ± 0.1 | 61 µM |  | Nc1ncnc2c1ncn2[C@@H]1O[C@H](COP(=O)(O)O)[C@@H](O)[C@H]1O [AMP, adenosine monophosphate]
2 | 1.5 ± 0.1 | 989 ± 58 µM |  | 952 ± 55 µM | 202 ± 22 µM |  | 1570 ± 140 µM | 2.7 ± 0.5 |  | 2550 ± 230 µM |  |  |  |  |  | 2.2 and 2.2 ± 0.2 | 257 ± 14 µM | completely displaced | Nc1ncnc2c1ncn2[C@@H]1O[C@H](COP(=O)(O)OP(=O)(O)OP(=O)(O)O)[C@@H](O)[C@H]1O [ATP]

Reference: patent US20050202511A1, “AMP-activated protein kinase (AMPK) inhibitor screening assay” (priority 2002, published 2005)
